In PubChem BioAssay (NCI) one finds TGI data, which are given here for 16 compounds.

Among the test systems are HT29 colon; OVCAR-3 ovarian; EKVX NSCLC; HCT-116 colon; MALME-3M melanoma; SN12C renal; KM12 colon; HOP-62 NSCLC; ACHN renal; A498 renal.
What all share (assay): NCI tumour cell line growth inhibition, 48 h

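Method: 48-hour compound exposure of cells in 96-well plates, five concentrations, linear interpolation of endpoints. TGI: total growth inhibition.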

In the case of `CC(C)=NN/C(=N\S(=O)(=O)c1ccc(Oc2cccc(Cl)c2C#N)cc1)Nc1ccc(Cl)cc1`, the TGI in the assay with HT29 colon, in the assay on OVCAR-3 ovarian, in the assay with EKVX NSCLC, with HCT-116 colon, in the assay with MALME-3M melanoma and in the assay with SN12C renal was more than 100 µM each time. Moreover, the TGI in the assay on KM12 colon and with HOP-62 NSCLC was more than 100 µM each time.
On to `C/C=C/c1cc(=O)c([C@@H]2OC(=O)c3cc(OC)cc(OC)c32)co1`, for which the TGI in the assay with HT29 colon was more than 100 µM; with OVCAR-3 ovarian, 64.3 µM; in the assay with EKVX NSCLC, more than 100 µM; in the assay on HCT-116 colon it was more than 100 µM; in the assay with KM12 colon, more than 100 µM; in the assay with HOP-62 NSCLC it was more than 100 µM. For the same compound, the TGI in the assay with ACHN renal was more than 100 µM.
With `COc1cc2ccc(=O)oc2cc1O`, the TGI in the assay with HT29 colon is more than 625 µM; with OVCAR-3 ovarian, 330 µM; with EKVX NSCLC, 226 µM; in the assay with HCT-116 colon, more than 625 µM; in the assay on MALME-3M melanoma, 489 µM; with SN12C renal, 282 µM. Further, the TGI with KM12 colon is more than 625 µM; in the assay with HOP-62 NSCLC, 411 µM; in the assay with A498 renal, 208 µM.
Regarding `CCCC(=O)NC(Nc1ccc(S(=O)(=O)Nc2cc(C)on2)cc1)(C(=O)OCC)C(F)(F)F` (stereo not given), the TGI with HT29 colon, in the assay with OVCAR-3 ovarian, with EKVX NSCLC, in the assay with HCT-116 colon, in the assay with MALME-3M melanoma and in the assay with SN12C renal was more than 100 µM in each case. Further, the TGI in the assay on KM12 colon, with HOP-62 NSCLC and in the assay with ACHN renal was more than 100 µM in each case.
On to `CC(=O)Oc1cc2c(cc1OC(C)=O)OCC(c1ccc(C)cc1)C2` (stereo not given), for which the TGI in the assay with HT29 colon is 73.6 µM; in the assay with OVCAR-3 ovarian it was 41 µM; with EKVX NSCLC it was 42.1 µM; in the assay with HCT-116 colon, 41.5 µM; with MALME-3M melanoma it was 32 µM; in the assay with SN12C renal, 33.2 µM. Moreover, the TGI was 58.6 µM with KM12 colon, 44.4 µM in the assay on HOP-62 NSCLC and 15.3 µM in the assay with A498 renal.
Regarding `Cc1cc(S(=O)(=O)N/C(=C(\C#N)C(=O)c2ccc(Cl)cc2)[n+]2ccc(N(C)C)cc2)c([S-])cc1Cl`, the TGI with HT29 colon is 95.1 µM; with OVCAR-3 ovarian, more than 100 µM; in the assay with HCT-116 colon, 37.3 µM; in the assay on MALME-3M melanoma, 80 µM; with SN12C renal it was more than 100 µM; in the assay with KM12 colon, more than 100 µM. Further, the TGI in the assay on HOP-62 NSCLC is more than 100 µM; with ACHN renal, more than 100 µM; with A498 renal, 56.6 µM.
For the compound `CO/N=C1\CC(NC(=O)CNC(=O)OC(C)(C)C)c2ccsc21` (stereo not given), the TGI in the assay on HT29 colon, with OVCAR-3 ovarian, in the assay on EKVX NSCLC, with HCT-116 colon, with MALME-3M melanoma and in the assay with SN12C renal was more than 100 µM in each case. Further, the TGI in the assay on HOP-62 NSCLC and in the assay with A498 renal was more than 100 µM throughout.
Take `COC(OC)[C@@H]1OC[C@H](n2cnc3c(N)ncnc32)[C@H]1O`: the TGI in the assay with HT29 colon, in the assay on OVCAR-3 ovarian, in the assay with EKVX NSCLC, with HCT-116 colon, in the assay on SN12C renal and in the assay on KM12 colon was more than 100 µM throughout. For the same compound, the TGI in the assay on HOP-62 NSCLC, in the assay on ACHN renal and in the assay on A498 renal was more than 100 µM in each case.
In the case of `COC(=O)C1CCC(=S)N1C(=O)c1ccccc1` (stereo not given), the TGI in the assay on HT29 colon, with OVCAR-3 ovarian, with EKVX NSCLC, in the assay with HCT-116 colon, in the assay with MALME-3M melanoma and in the assay on KM12 colon was more than 100 µM each time. For the same compound, the TGI in the assay on HOP-62 NSCLC, with ACHN renal and in the assay with A498 renal was more than 100 µM each time.
Regarding `CC(=C(c1ccccc1)c1ccccc1)N1C(=O)CC(=O)N1C`, the TGI in the assay on HT29 colon, in the assay with OVCAR-3 ovarian, in the assay with EKVX NSCLC, in the assay on HCT-116 colon, in the assay with SN12C renal and in the assay on KM12 colon was more than 100 µM in each case. Further, the TGI in the assay with HOP-62 NSCLC and with ACHN renal was more than 100 µM in each case.
For `Cc1cccc(Nc2nn3c(=O)c4c5c(sc4nc3s2)CCCC5)c1`, the TGI in the assay with HT29 colon, in the assay with OVCAR-3 ovarian, in the assay with HCT-116 colon, with SN12C renal, in the assay with KM12 colon and with HOP-62 NSCLC was more than 100 µM in each case. Further, the TGI with ACHN renal was more than 100 µM.
Take `CC(=O)OCC1OC(SC2=N/C(=C\c3ccc(Br)s3)C(=O)N2CN2CCOCC2)C(OC(C)=O)C(OC(C)=O)C1OC(C)=O` (stereo not given): the TGI was found to be 34.2 µM in the assay on HT29 colon; 97.4 µM in the assay with EKVX NSCLC; 28.3 µM in the assay with HCT-116 colon; 35.6 µM in the assay with MALME-3M melanoma; 32.2 µM in the assay with SN12C renal; 35.3 µM in the assay on KM12 colon. The TGI in the assay on HOP-62 NSCLC was 56.6 µM; with ACHN renal, 46.2 µM; in the assay on A498 renal, 46 µM.
As to `C=C/C(C)=C\CC1[C@](C)(O)CC[C@H]2C(C)(C)C(=O)CC[C@]12C` (stereo not given in full), the TGI in the assay on HT29 colon, in the assay on OVCAR-3 ovarian, in the assay on EKVX NSCLC, in the assay with HCT-116 colon, with MALME-3M melanoma and in the assay on SN12C renal was more than 100 µM throughout. For the same compound, the TGI in the assay with KM12 colon, in the assay with ACHN renal and in the assay on A498 renal was more than 100 µM throughout.
Turning to `NCCCN(CCCN(C(=O)Nc1ccccc1)c1ccccc1)C(=O)Nc1ccccc1`, the TGI in the assay on HT29 colon is more than 100 µM; in the assay on EKVX NSCLC, more than 100 µM; in the assay on HCT-116 colon, more than 100 µM; in the assay on MALME-3M melanoma, 38.9 µM; in the assay with SN12C renal it was more than 100 µM; in the assay with HOP-62 NSCLC it was 67.5 µM. In addition, the TGI in the assay with ACHN renal and in the assay on A498 renal was more than 100 µM in each case.
`O=c1cc(N2CCCC2)[nH]c(=O)n1Cc1ccccc1`: the TGI with HT29 colon, with EKVX NSCLC, in the assay with HCT-116 colon, in the assay with MALME-3M melanoma, in the assay with SN12C renal and in the assay with KM12 colon was more than 100 µM each time. The TGI in the assay on HOP-62 NSCLC and in the assay with ACHN renal was more than 100 µM in each case.
For `Cc1csc(NC23CC4CC(CC(C4)C2)C3)[n+]1C(P(=O)([O-])O)P(=O)(O)O` (stereo not given), the TGI in the assay on HT29 colon, in the assay on OVCAR-3 ovarian, with EKVX NSCLC, with HCT-116 colon, with MALME-3M melanoma and in the assay on KM12 colon was more than 100 µM throughout. Further, the TGI with HOP-62 NSCLC, in the assay on ACHN renal and in the assay with A498 renal was more than 100 µM in each case.
